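The compound was tested at five concentrations on cells cultured in 96-well plates, with a 48-hour exposure period. GI50: concentration for 50% inhibition of growth.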 Active and inactive are the calls of the source. No stated cut-off is given here; in the data, active = GI50 up to about 1.1 µM and inactive = higher.

The source of these data is ChEMBL document CHEMBL1201862, “PubChem BioAssay data set” (2004).

Some test systems named below: SF-539; MOLT-4; A498; NCI-H460; MCF7; OVCAR-5; NCI-H226; MDA-MB-435; KM12; K562; CCRF-CEM; ACHN; SNB-19; COLO 205; SF-295; HOP-62; MDA-N; HOP-92; HL-60; EKVX.
Assay in all cases: NCI-60 cell line screen, 48 h

`CC(=O)O[C@@H](C1C[C@@H](C)[C@H]2[C@@](O)(O1)[C@H](O)[C@@]1(C)C3=CC[C@H]4C(C)(C)[C@@H](OC5OCC(O)C(O)C5O)CC[C@@]45C[C@@]35CC[C@]21C)C(C)(C)O` (stereo not given in full): the GI50 in the assay with SF-539 is 15.7 µM (inactive); in the assay with MOLT-4, 12.3 µM (inactive); in the assay on A498, 23.8 µM (inactive); in the assay with NCI-H460 it was 18.2 µM (inactive); in the assay with MCF7, 17.9 µM (inactive); in the assay on OVCAR-5, 28.6 µM (inactive). For the same compound, the GI50 with NCI-H226 was 20.6 µM (inactive); in the assay on MDA-MB-435, 24 µM (inactive); with KM12 it was 22.5 µM (inactive); in the assay on K562, 28.2 µM (inactive); in the assay on CCRF-CEM, 2.82 µM (inactive); in the assay with ACHN, 20.8 µM (inactive). For the same compound, the GI50 in the assay with SNB-19 is 34.4 µM (inactive); with COLO 205, 22 µM (inactive); with SF-295, 21.1 µM (inactive); with HOP-62, 32.7 µM (inactive); in the assay on MDA-N, 26.9 µM (inactive); in the assay with HOP-92, 23.8 µM (inactive). Besides, the GI50 with HL-60 is 1.56 µM (inactive); in the assay with EKVX it was 24.2 µM (inactive).

With `On1c(-c2ccccc2)nc2ccccc2c1=S`, the GI50 in the assay with SF-539 was 4.32 µM (inactive); with MOLT-4 it was 2.04 µM (inactive); in the assay with A498, 42.2 µM (inactive); in the assay on NCI-H460 it was 0.583 µM (active); in the assay on MCF7 it was 6.9 µM (inactive); with OVCAR-5, > 100 µM (inactive). Besides, the GI50 is 9.16 µM (inactive) in the assay on NCI-H226; 7.43 µM (inactive) in the assay on MDA-MB-435; 3.18 µM (inactive) in the assay on KM12; 3.91 µM (inactive) with K562; 1.55 µM (inactive) in the assay with CCRF-CEM; 5.21 µM (inactive) with ACHN. Besides, the GI50 was 12.3 µM (inactive) in the assay with SNB-19; 3.12 µM (inactive) in the assay with COLO 205; 2.7 µM (inactive) in the assay with SF-295; 7.35 µM (inactive) in the assay on HOP-62; 18.9 µM (inactive) in the assay on MDA-N; > 100 µM (inactive) in the assay on HOP-92. Moreover, the GI50 in the assay with HL-60 is 2.4 µM (inactive); in the assay with EKVX it was 10.3 µM (inactive).

With `COc1ccc(Cc2cc(OC)c(OC)c(OC)c2)cc1`, the GI50 in the assay with SF-539 is 0.224 µM (active); with MOLT-4 it was 0.221 µM (active); in the assay with A498, 0.27 µM (active); in the assay with NCI-H460 it was 0.286 µM (active); in the assay with MCF7, 0.203 µM (active); in the assay on OVCAR-5, 8.83 µM (inactive). In addition, the GI50 in the assay on NCI-H226 is 0.923 µM (active); with MDA-MB-435, 0.0236 µM (active); in the assay with KM12, 0.144 µM (active); in the assay on K562 it was 0.0665 µM (active); with CCRF-CEM, 0.165 µM (active); in the assay with ACHN, 0.771 µM (active). In addition, the GI50 with SNB-19 was 0.324 µM (active); in the assay with COLO 205, 0.143 µM (active); with SF-295, 0.188 µM (active); with HOP-62 it was 0.411 µM (active); in the assay with MDA-N, 0.0245 µM (active); in the assay on HOP-92 it was 0.805 µM (active). Further, the GI50 with HL-60 was 0.0586 µM (active); with EKVX it was 1.14 µM (inactive).

Turning to `C=C(C)C(=O)OC1CC2(C)OC(=CC2=O)C(C)CC2OC(=O)C(=C)C12` (stereo not given), the GI50 in the assay on SF-539 was 3.91 µM (inactive); in the assay on MOLT-4, 2.9 µM (inactive); in the assay on A498, 15.2 µM (inactive); with NCI-H460, 11.9 µM (inactive); in the assay on MCF7 it was 2.78 µM (inactive); with OVCAR-5, 10.4 µM (inactive). For the same compound, the GI50 in the assay on NCI-H226 is 19.1 µM (inactive); with MDA-MB-435 it was 4.13 µM (inactive); in the assay with KM12, 19.8 µM (inactive); in the assay on K562 it was 0.656 µM (active); with CCRF-CEM, 0.839 µM (active); in the assay on ACHN, 2.8 µM (inactive). Further, the GI50 is 21.4 µM (inactive) with SNB-19; 1.23 µM (inactive) in the assay with COLO 205; 19 µM (inactive) in the assay with SF-295; 19.2 µM (inactive) with HOP-62; 3.01 µM (inactive) in the assay with MDA-N; 5.56 µM (inactive) with HOP-92. Besides, the GI50 in the assay on HL-60 is 0.461 µM (active); in the assay on EKVX it was 7.76 µM (inactive).
